Reference: patent publication US9464071B2 (priority 2010, dated 2016)
Several values for one entry are separate records, joined by “and”; a condition that tells them apart may be missing. Equal values may be shown once.

| melting point | SMILES |
| --- | --- |
| 145.81 °C | COc1cc(OC)cc(N(CC2CC2)c2ccc3ncc(-c4cnn(CC(=O)N(C)C)c4)nc3c2)c1 [Compound 212] |
| 132 °C | COc1cc(C)cc(N(CC2CC2)c2ccc3ncc(-c4cnn(C)c4)nc3c2)c1 [Compound 228] |
| 106.81 °C | COc1cc(OC)cc(N(CC2CC2)c2ccc3ncc(-c4cnn(CCCNCCS(C)(=O)=O)c4)nc3c2)c1 [Compound 231] |
| 133.66 °C | COc1cc(OC)cc(N(CCO)c2ccc3ncc(-c4cnn(CCCN)c4)nc3c2)c1 [Compound 238] |
| 196.25 °C | COc1cc(OC)cc(N(CCCC#N)c2ccc3ncc(-c4cnn(C)c4)nc3c2)c1 [Compound 242] |
| 130.64 °C | COc1cc(OC)cc(N(CCNS(C)(=O)=O)c2ccc3ncc(-c4cnn(C)c4)nc3c2)c1 [Compound 262] |
| 168.45 °C | COc1cc(OC)cc(N(Cc2csc(C)n2)c2ccc3ncc(-c4cnn(C)c4)nc3c2)c1 [Compound 263] |
| 155.79 °C | COc1cc(OC(C)C)cc(N(CC2CC2)c2ccc3ncc(-c4cnn(C)c4)nc3c2)c1 [Compound 269] |
| 181.91 °C | COc1cc(OC)cc(N(CC2CC2)c2ccc3ncc(-c4cnn(CCNS(C)(=O)=O)c4)nc3c2)c1 [Compound 271] |
| 155.31 °C | COc1cc(OC)cc(N(CCCN2CCCC2)c2ccc3ncc(-c4cnn(CCS(C)(=O)=O)c4)nc3c2)c1 [Compound 295] |
| 201 °C | COc1cc(OC)cc(N(CCN2CCOCC2)c2ccc3ncc(-c4cnn(C)c4)nc3c2)c1 [Compound 299] |
| 262.42 °C | CNC(=O)c1cc(OC)cc(N(CC2CC2)c2ccc3ncc(-c4cn[nH]c4)nc3c2)c1 [Compound 311] |
| 176 °C and 176.49 °C | CNC(=O)Cn1cc(-c2cnc3ccc(N(CCCO)c4cc(OC)cc(OC)c4)cc3n2)cn1 [Compound 313] |
| 139 °C | COc1cc(F)cc(N(CCO)c2ccc3ncc(-c4cnn(CCO)c4)nc3c2)c1 [Compound 315] |
| 158.73 °C | COc1cc(OC)cc(N(CCCNS(=O)(=O)N(C)C)c2ccc3ncc(-c4cnn(C)c4)nc3c2)c1 [Compound 316] |
| 166.37 °C | COc1cc(OC)cc(N(Cc2ccc(Cl)s2)c2ccc3ncc(-c4cn[nH]c4)nc3c2)c1 [Compound 323] |
| 122.79 °C | CCS(=O)(=O)NCCN(c1cc(OC)cc(OC)c1)c1ccc2ncc(-c3cnn(C)c3)nc2c1 [Compound 335] |
| 198.91 °C | COc1cc(OC)cc(N(CCCN)c2ccc3ncc(-c4cn[nH]c4)nc3c2)c1 [Compound 338] |
| 184.2 °C | COc1cc(OC)cc(N(Cc2ccc(Cl)s2)c2ccc3ncc(-c4cnn(CCO)c4)nc3c2)c1 [Compound 340] |
| 80 °C | CCOC(=O)C1CCN(CCN(c2cc(OC)cc(OC)c2)c2ccc3ncc(-c4cnn(C)c4)nc3c2)CC1 [Compound 343] |
| 154.94 °C | COc1cc(OC)cc(N(CC2CCOCC2)c2ccc3ncc(-c4cnn(C)c4)nc3c2)c1 [Compound 356] |

| melting point | SMILES |
| --- | --- |
| 206.48 °C | COc1cc(OC)cc(N(CC(O)CN2CCC(F)(F)C2)c2ccc3ncc(-c4cnn(C)c4)nc3c2)c1 (centres unmarked) [Compound 374] |
| 112.31 °C | COc1cc(OC)cc(N(CCCN2CC(F)(F)C2)c2ccc3ncc(-c4cnn(C)c4)nc3c2)c1 [Compound 377] |
| 132.82 °C | COCC(O)CN(c1cc(OC)cc(OC)c1)c1ccc2ncc(-c3cnn(C)c3)nc2c1 (centres unmarked) [Compound 397] |
| 138 °C | CCOc1cc(F)cc(N(CCO)c2ccc3ncc(-c4cnn(C)c4)nc3c2)c1 [Compound 401] |
| 147.77 °C | COc1cc(OC)cc(N(CCN2CCC(F)(F)CC2)c2ccc3ncc(-c4cnn(C)c4)nc3c2)c1 [Compound 431] |
| 251.77 °C | [2H]C([2H])([2H])Oc1cc(OC)cc(N(CCNC(C)C)c2ccc3ncc(-c4cn[nH]c4)nc3c2)c1 [Compound 432] |
| 140.67 °C | COc1ccc(OC)c(N(CCN)c2ccc3ncc(-c4cn[nH]c4)nc3c2)c1 [Compound 438] |
| 80 °C | COc1cc(OC)cc(N(CCCn2cccn2)c2ccc3ncc(-c4cnn(C)c4)nc3c2)c1 [Compound 448] |
| 143.58 °C | COc1cc(OC)cc(N(CCN2CCC(N(C)C)C2)c2ccc3ncc(-c4cnn(C)c4)nc3c2)c1 (centres unmarked) [Compound 456] |
| 99.32 °C | COc1cc(OC)cc(N(CCCN2CCC(F)(F)C2)c2ccc3ncc(-c4cnn(CC5CCOCC5)c4)nc3c2)c1 [Compound 459] |
| 70 °C | CCOc1cc(F)cc(N(CCN)c2ccc3ncc(-c4cnn(C)c4)nc3c2)c1 [Compound 478] |
| 96.65 °C | COc1cc(F)cc(N(CCN)c2ccc3ncc(-c4cnn(C)c4)nc3c2)c1 [Compound 488] |
| 70 °C | CNCCN(c1cc(F)cc(OC)c1)c1ccc2ncc(-c3cnn(C)c3)nc2c1 [Compound 510] |
| 160.65 °C | COc1cc(OC)cc(N(CCNCC(F)F)c2ccc3ncc(-c4cnn(C)c4)nc3c2)c1 [Compound 513] |
| 234.8 °C | COc1cc(OC)cc(N(C[C@@H](O)CN2CC[C@H](C#N)C2)c2ccc3ncc(-c4cnn(C)c4)nc3c2)c1 [Compound 526] |
| 110.16 °C | COc1cc(OC)cc(N(CCN2CCN(CCO)CC2)c2ccc3ncc(-c4cnn(C)c4)nc3c2)c1 [Compound 528] |
| 130.63 °C | COc1cc(OC)cc(N(CC(O)CN2CCOCC2)c2ccc3ncc(-c4cnn(C)c4)nc3c2)c1 (centres unmarked) [Compound 540] |
| 152 °C | COc1cc(F)cc(N(CCCO)c2ccc3ncc(-c4cnn(C)c4)nc3c2)c1 [Compound 565] |
| 164.5 °C | COc1cc(OC)cc(N(Cc2cccnc2)c2ccc3ncc(-c4cnn(C)c4)nc3c2)c1 [Compound 568] |
| 139 °C | COc1cc(OC)cc(N(Cc2ccncc2)c2ccc3ncc(-c4cnn(C)c4)nc3c2)c1 [Compound 569] |
| 136.49 °C | COc1cc(OC)cc(N(CCN2CCN(C3CCN(C(C)=O)CC3)CC2)c2ccc3ncc(-c4cnn(C)c4)nc3c2)c1 [Compound 583] |

| melting point | SMILES |
| --- | --- |
| 158.84 °C | COc1cc(OC)cc(N(CCCN2CCC(F)(F)C2)c2ccc3ncc(-c4cnn(C)c4)nc3c2)c1 [Compound 602] |
| 134 °C | CNC(=O)Cn1cc(-c2cnc3ccc(N(CCCNC(C)C)c4cc(OC)cc(OC)c4)cc3n2)cn1 [Compound 615] |
| 130 °C | COc1cc(OC)cc(N(CCC(=O)N(C)OC)c2ccc3ncc(-c4cnn(C)c4)nc3c2)c1 [Compound 633] |
| 110 °C and 111 °C | COc1cc(OC)cc(N(CCCc2cc(C)ccn2)c2ccc3ncc(-c4cnn(C)c4)nc3c2)c1 [Compound 635] |
| 155 °C | COc1cc(OC)cc(N(CCCNCC(N)=O)c2ccc3ncc(-c4cnn(C)c4)nc3c2)c1 [Compound 641] |
| 127 °C | COc1cc(OC)cc(N(CCNC(C)C)c2ccc3ncc(-c4cnn(CCC#N)c4)nc3c2)c1 [Compound 642] |
| 144 °C and 142 °C | COc1cc(OC)cc(N(CC#Cc2ncccc2OC)c2ccc3ncc(-c4cnn(C)c4)nc3c2)c1 [Compound 652, N-(3,5-Dimethoxyphenyl)-N-[3-(3-methoxypyridin-2-yl)prop-2-yn-1-yl]-3-(1-methyl-1H-pyrazol-4-yl)quinoxalin-6-amine] |
| 152 °C | COc1cc(OC)cc(N(CCN(Cc2ccc(N)cc2)C(C)C)c2ccc3ncc(-c4cnn(C)c4)nc3c2)c1 [Compound 658] |
| 151 °C | COc1cc(OC)cc(N(C[C@@H](O)C(F)(F)F)c2ccc3ncc(-c4cnn(CCCN)c4)nc3c2)c1 [Compound 660, 3-[{3-[1-(3-Aminopropyl)-1H-pyrazol-4-yl]quinoxalin-6-yl}(3,5-dimethoxyphenyl)amino]-1,1,1-trifluoropropan-2-ol] |
| 200 °C | COc1cc(OC)cc(N(CCCc2nccc(O)n2)c2ccc3ncc(-c4cnn(C)c4)nc3c2)c1 [Compound 663] |
| 125 °C | COc1cc(OC)cc(N(CCCNCC(F)F)c2ccc3ncc(-c4cnn(C)c4)nc3c2)c1 [Compound 717] |
| 190 °C | COc1cccnc1C#CCN(c1ccc2ncc(-c3cnn(C)c3)nc2c1)c1c(Cl)c(OC)cc(OC)c1Cl [Compound 785] |
| 182 °C | COc1cc(OC)cc(N(c2ccc3ncc(-c4cnn(C)c4)nc3c2)C(C)(C)C#Cc2nccc(OC)n2)c1 [Compound 806] |
| 170 °C | COc1cc(OC)cc(N(Cc2ncccn2)c2ccc3ncc(-c4cnn(C)c4)nc3c2)c1 [Compound 812] |
| 126 °C | COc1cc(OC)cc(N(CC2CCN(c3nccc(OC)n3)CC2)c2ccc3ncc(-c4cnn(C)c4)nc3c2)c1 [Compound 839] |
| 156.5 °C | Cn1cc(-c2cnc3ccc(N(CC4CC4)c4cccc(OC(F)(F)F)c4)cc3n2)cn1 [Compound 881] |
| 194 °C | CN(C)c1cccc(N(CC2CC2)c2ccc3ncc(-c4cnn(C)c4)nc3c2)c1 [Compound 883] |
| 170 °C | COc1cc(OC)cc(N(CC#Cc2cc(OC)nc(OC)n2)c2ccc3ncc(-c4cnn(C)c4)nc3c2)c1 [Compound 913] |
| 166 °C | COc1cc(OC)cc(N(CC#CC2(O)CCN(C(=O)OC(C)(C)C)CC2)c2ccc3ncc(-c4cnn(C)c4)nc3c2)c1 [Compound 914] |
| 130 °C | COc1cc(OC)cc(N(CCC#Cc2ccccc2)c2ccc3ncc(-c4cnn(C)c4)nc3c2)c1 [Compound 919] |
